Values after ≈ are worked out from the molar mass of the structure shown.
The molecules below were run on P388 (assay: Cytotoxicity against mouse P388 cells). Settings: read-out: ED50 (the source's name).
Type: functional

| SMILES | EC50 [µg/mL] |
| --- | --- |
| COC(=O)CC1CNC(=O)c2cc(Br)c(Br)n21 (racemic) | 30 (≈ 82 µM) |
| COCNC(=O)c1cc(Br)c(Br)[nH]1 | 21.5 (≈ 68.9 µM) |
| O=C1NCC(O)n2c1cc(Br)c2Br (racemic) [LONGAMIDE] | > 100 |
